Earlier results on 3 compounds are cited in patent publication US20010034320A1, “NK1-receptor antagonists for treating restless legs syndrome” (priority 2000, published 2001).

For this series, the system named is Restless Legs Syndrome (RLS). The note with it: for effect on RLS complaint in therapy trials: RLS patients, therapy trials described in the background.
Where [1] appears, read: objective polysomnographic measuring parameters, daily doses 0.1-0.9 mg.

`Clc1cccc(Cl)c1NC1=NCCN1` [clonidine, 2-(2,6-dichloroanilino)-4,5-dihydroimidazole]: under setting [1], the “quality of sleep, frequency of waking or periodic leg movements in sleep (PLMS)” value is recorded as “not affected” and the sleep latency result is “shortened”. Besides, under “patient-reported, daily doses 0.1-0.9 mg, 4 open trials, 2 double-blind placebo-controlled trials and a single case study”, the “perceived symptoms such as paraesthesia, compulsive movement and tiredness during the day” value was “(statistically significant) reduction”.

Turning to `NC(=O)N1c2ccccc2C=Cc2ccccc21` [Carbamazepine], the “effect on RLS complaint in therapy trials” value is “only partial relief from the complaint”.

For the compound `N[C@@H](Cc1ccc(O)c(O)c1)C(=O)O` [L-dopa, levodopa], the “effect on RLS complaint in therapy trials” value is listed as “significant alleviation of the complaint”.
